Reference: the supplement of paper PMC10307832

How the values were obtained:
Assay in all cases: relative viability (nuclei count vs DMSO), 5 days (fraction); higher = more cells survive
[1] = compound: CCN(CC)CCNC(=O)c1c(C)[nH]c(/C=C2\C(=O)Nc3ccc(F)cc32)c1C [Sunitinib] + COc1cc2c(Oc3ccc(NC(=O)C4(C(=O)Nc5ccc(F)cc5)CC4)cc3F)ccnc2cc1OCCCN1CCOCC1 [Foretinib] (partner 0.25 µM)
Procedure, shortened: (§1)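 Lung cancer cell lines, seeded in 1536-well plates, were treated the following day by pin tool with a single drug or with five library-drug doses (not always all listed) in √10 steps on top of a fixed anchor-drug dose. Cells were fixed and nuclei stained in one step after 5 days, and nuclei were counted. Relative viability is the nuclei count for treated wells divided by that for vehicle wells, reported as medians of duplicate plates.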

[2] = compound: CCN(CC)CCNC(=O)c1c(C)[nH]c(/C=C2\C(=O)Nc3ccc(F)cc32)c1C [Sunitinib] + O=C(c1cc(Cc2n[nH]c(=O)c3ccccc23)ccc1F)N1CCN(C(=O)C2CC2)CC1 [Olaparib] (partner 8 µM)
Procedure, shortened: as §1

[3] = compound: CCN(CC)CCNC(=O)c1c(C)[nH]c(/C=C2\C(=O)Nc3ccc(F)cc32)c1C [Sunitinib] + Nc1nc2[nH]cc(CCc3ccc(C(=O)N[C@@H](CCC(=O)O)C(=O)O)cc3)c2c(=O)[nH]1 [Pemetrexed] (partner 0.2 µM)
Procedure, shortened: as §1

[4] = compound: CCN(CC)CCNC(=O)c1c(C)[nH]c(/C=C2\C(=O)Nc3ccc(F)cc32)c1C [Sunitinib] + Cc1nc(NC(=O)N2CCC[C@H]2C(N)=O)sc1-c1ccnc(C(C)(C)C(F)(F)F)c1 [Alpelisib] (partner 2 µM)
Procedure, shortened: as §1

Cell Line | relative viability ([1]; first compound 0.02 µM) | relative viability ([1]; first compound 0.2 µM) | relative viability ([1]; first compound 0.6325 µM) | relative viability ([1]; first compound 2 µM) | relative viability ([2]; first compound 0.02 µM) | relative viability ([2]; first compound 0.06325 µM) | relative viability ([2]; first compound 0.2 µM) | relative viability ([2]; first compound 0.6325 µM) | relative viability ([2]; first compound 2 µM) | relative viability ([3]; first compound 0.02 µM) | relative viability ([3]; first compound 0.06325 µM) | relative viability ([3]; first compound 0.2 µM) | relative viability ([3]; first compound 0.6325 µM) | relative viability ([3]; first compound 2 µM) | relative viability ([4]; first compound 0.02 µM) | relative viability ([4]; first compound 0.06325 µM) | relative viability ([4]; first compound 0.2 µM) | relative viability ([4]; first compound 0.6325 µM) | relative viability ([4]; first compound 2 µM) | relative viability ([1]; first compound 0.06325 µM)
NCI-H322M | 0.906 | 1.14 | 1.13 | 0.869 | 0.83 | 0.771 | 0.798 | 0.802 | 0.745 | 0.654 | 0.601 | 0.652 | 0.62 | 0.577 | 0.728 | 0.739 | 0.855 | 0.822 | 0.664 | 
NCI-H2023 | 0.739 | 0.981 | 0.659 | 0.78 | 0.487 | 0.485 | 0.518 | 0.462 | 0.465 | 0.235 | 0.307 | 0.265 | 0.301 | 0.222 | 0.638 | 0.584 | 0.697 | 0.64 | 0.516 | 0.887
NCI-H661 | 1.06 | 1.01 |  | 1.04 | 0.716 | 0.739 | 0.733 | 0.711 | 0.773 | 0.882 | 0.958 | 0.915 | 0.978 | 0.943 | 0.597 | 0.547 | 0.515 | 0.582 | 0.759 | 1.07
BEN | 0.598 | 0.576 | 0.665 | 0.644 | 1.02 | 1.03 | 1.14 | 1.08 | 0.956 | 0.812 | 0.862 |  | 0.742 | 0.74 | 0.898 | 1.1 | 1.04 | 0.991 | 0.955 | 0.704
LOU-NH91 | 0.939 | 1.04 | 0.998 | 0.878 | 0.899 | 0.903 | 1.01 | 1.05 | 0.875 | 0.388 | 0.38 | 0.389 | 0.382 | 0.448 |  | 0.71 | 0.76 | 0.752 | 0.652 | 0.974
HCC-366 | 0.864 | 0.919 | 0.827 | 0.871 | 0.343 | 0.355 | 0.482 | 0.449 | 0.42 | 0.154 | 0.168 | 0.168 | 0.194 | 0.497 | 0.353 | 0.466 | 0.656 | 0.528 | 0.431 | 0.908
PC-14 | 0.942 | 1.08 | 1 | 0.874 | 0.292 | 0.334 | 0.196 | 0.335 | 0.211 | 0.137 | 0.158 | 0.135 | 0.132 | 0.153 | 0.95 | 0.874 | 1.05 | 1.08 | 0.908 | 0.939
NCI-H441 | 0.771 |  | 1.01 | 1.04 | 0.481 | 0.557 | 0.796 | 0.659 | 0.61 | 0.263 | 0.253 | 0.278 | 0.235 | 0.257 |  | 0.83 | 0.766 | 0.569 | 0.487 | 0.953
NCI-H1993 | 0.746 | 0.789 | 0.685 | 0.73 | 1.02 | 0.979 | 1.12 | 0.844 | 1.03 | 0.436 | 0.563 | 0.584 | 0.55 | 0.575 | 0.674 | 0.697 | 0.716 | 0.689 | 0.68 | 0.691
NCI-H2126 | 1.13 | 1.34 | 1.47 | 1.31 | 0.924 | 0.978 | 0.978 | 1 | 0.884 | 0.628 | 0.826 | 0.777 | 0.786 | 0.751 | 0.736 | 0.76 | 0.818 | 0.747 | 0.715 | 1.31
COR-L23 | 0.972 | 1.14 | 0.961 | 0.969 | 0.317 | 0.349 | 0.361 | 0.385 | 0.351 | 0.207 | 0.196 | 0.196 | 0.199 | 0.216 | 0.897 | 0.724 | 0.935 | 0.917 | 0.891 | 0.945
NCI-H520 | 0.593 | 0.798 | 1 | 0.605 | 0.395 | 0.338 | 0.314 | 0.377 | 0.335 | 0.61 | 0.814 | 0.686 | 0.761 | 0.6 | 1.01 | 0.841 | 0.867 |  | 0.729 | 0.843
COR-L 105 | 1.07 | 0.952 | 1.12 | 1.12 | 0.591 | 0.695 | 0.881 | 0.651 | 0.837 | 1.08 | 1.01 | 1.1 | 1.14 | 1.22 | 0.925 | 0.835 | 1.04 | 1.23 | 0.829 | 1.22
HCC-827 | 1.05 | 1.04 | 1.03 | 1.07 | 0.722 | 0.696 | 0.622 | 0.648 | 0.597 | 0.265 | 0.29 | 0.28 | 0.584 | 0.289 | 1.02 | 1.04 | 1.01 | 1.04 | 0.887 | 0.958
NCI-H2228 | 0.844 | 0.963 | 0.842 | 0.657 | 0.608 | 0.55 | 0.98 | 0.772 | 0.544 | 0.343 | 0.313 | 0.37 | 0.349 | 0.349 | 0.735 | 0.729 | 1 | 0.717 | 0.538 | 0.833
